Values joined by “and” are separate entries in the source; they are usually repeats but may differ in a detail not shown here. Equal entries are not always repeated.
What was measured:
MOG-induced EAE [1] = experiment: Summary of studies of GA-blocking + laquinimod in MOG-induced EAE (Examples 2.1-2.3); format: in vivo, mice; conditions: GA-blocking alone
Method: FIG. 4 is a graphical representation summarizing experimental results from Examples 2.1-2.3.
At higher doses (5 and 25 mg/kg) laquinimod provides an additive effect over GA-blocking as summarized in Table 9 and shown on FIGS. 4A and 4B.

[2] = tested on: relapsing remitting (RR) EAE; experiment: Relapsing remitting EAE in Biozzi mice, combination study (Example 2.6); format: in vivo
Method: EAE is an animal model for multiple sclerosis. In the Biozzi AB/H EAE mice, a RR EAE can be induced. […] Re-injection of an encephalitogen can induce a chronic relapsing disease that enables measuring long-term effects on subsequent relapses rather than immediate effects.
The EAE induction was performed according to procedure “RR-EAE.Biozzi” The Biozzi mice were weighed and injected subcutaneously and re-injected one week later with encephalitogenic agent (MSCH emulsion). 0.3 mL of the encephalitogenic agent containing 1.0 mg of MSCH and 200.0 μg of MT was injected subcutaneously, at two sites in the right flank of each mouse (0.15 mL at each site). The second injection was done in a similar manner in the left flank, one week later.
On the day of first injection of encephalotigen, the Biozzi mice were randomly allocated to eight treatment groups as follows: Tables 16-17.
The 5.0 mg/mL laquinimod stock solution was diluted 1:5 to yield 1 mg/mL.
The mice in all the groups were administered daily by oral gavage a volume dose level of […] of the respective test formulations from the day the mice are allocated to the treatment groups (first injection of encephalitogen) for 59 consecutive days until the termination of the study.
The mice were examined and scored according to the following table, until the termination of the study (60 days after initiation of treatment).
The activity of the test articles for the first and second phase of RR EAE was calculated by comparing the incidence of disease, mortality, onset and duration of disease, group mean score and mean maximal score to the control group. Calculations were carried separately and together for the first and the second relapse.

MOG-induced EAE [3] = experiment: MOG-induced EAE with GA blocking and s.c. daily GA (Example 2.5); format: in vivo, C57B1 mice
Method: The objective of this study was to test the suppressive effect of laquinimod alone and in combination with Glatiramer acetate in the EAE model in C57B1 mice. […] Laquinimod was administered orally at dose levels of 2.5 and 5.0 mg/kg.
EAE was induced in the mice by the injection of the encephalitogenic emulsion (MOG/CFA). Laquinimod was administered orally for 30 consecutive days.
EAE induction EAE was induced by injecting the encephalitogenic mixture (emulsion) consisting of MOG ([…]). A 0.2 ml emulsion was injected subcutaneously into the flanks of the mice. Pertussis toxin was injected intraperitoneally on the day of induction and 48 hours later (total amount will be 0.150+0.150=0.300 μg/mouse in 0.2 ml dosage volume).
Groups 1, 3-8: 45.9 mg MOG was diluted in […] Normal Saline (3.0 mg/ml MOG stock solution). 12.5 mL of 3.0 mg/ml stock solution was diluted in 12.5 mL Normal Saline to yield 1.5 mg MOG/mL. […] The emulsification was made from equal parts of oil and liquid portions (1:1) in two syringes connected to each other with Leur lock, transferred to insulin syringe and 0.2 ml was injected the right flank of each mouse. The dose of the MOG in all the groups (1 to 8) was […].
The test concentrations of laquinimod were prepared in purified water. For high dose (25.0 mg/kg) 2.5 mg/mL stock solution was prepared (group 8). The 2.5 mg/mL stock solution was diluted 1:5 and 1:10 to yield 0.5 and 0.25 mg/mL for dose levels of 5.0 mg/kg for groups 5 and 7 and 2.5 mg/kg respectively for groups #4 and 6. Laquinimod was administered daily from the initiation of the study, to the respective groups by gavage at a volume of 0.2 ml/mouse.
Every day one tube was thawed and brought to RT.
Clinical signs Scoring of EAE clinical signs was started from Day 10 post EAE induction and was continued daily until Day 30. The clinical signs were recorded according to a grading system described in the Table 2 above.
All mice having scores of 1 and above were considered sick. When the first clinical sign appeared all mice were given food soaked in water, which was spread on different places on the bedding of the cages. An animal which continued to have score 5 for three days was killed on humane grounds and given score 6 on the next day. For calculation purposes, the score of animals that were sacrificed or died (6) was carried forward.

[4] = first and second attacks together, GA 12.5 mg/kg oral daily 59 d
[5] = first attack, GA 12.5 mg/kg oral daily
[6] = second attack, GA 12.5 mg/kg oral daily
[7] = GA blocking 12.5 mg/kg once with encephalitogen
[8] = GA blocking 12.5 mg/kg once with encephalitogen, listed as GA blocking

Substance: L-glutamic acid polymer with L-alanine, L-lysine and L-tyrosine, acetate (salt) [GA]
- Mean percent inhibition, Examples 2.1-2.3 summarized (MOG-induced EAE [1]): 67.6%
- GMS % inhibition [2, 4]: 21.7%
- GMS value [2, 4]: 1.8
- Incidence [2, 4]: 12/14
- Incidence % inhibition [2, 4]: 7.7%
- MMS % inhibition [2, 4]: 0.0%
- MMS value [2, 4]: 3.6
- Mean Duration [2, 4]: 23.8 ± 16.2 days
- % Inhibition 1 (incidence) [2, 5]: 7.7%
- IMS % Inhibition 3 [2, 5]: 15.6%
- IMS value [2, 5]: 58.6 ± 70.5
- Incidence [2, 5]: 12/14
- MMS % Inhibition 2 [2, 5]: 2.8%
- MMS value [2, 5]: 3.5 ± 1.6
- Mean Duration [2, 5]: 15.7 ± 14.0 days
- % Inhibition 1 (incidence) [2, 6]: 31.2%
- IMS % Inhibition 3 [2, 6]: 35.5%
- IMS value [2, 6]: 30.5 ± 33.0
- Incidence [2, 6]: 6/12
- MMS % Inhibition 2 [2, 6]: 31.0%
- MMS value [2, 6]: 2.0 ± 1.7
- Mean Duration [2, 6]: 9.4 ± 10.5 days
- % Inhibition 1 (incidence) (MOG-induced EAE [3]; GA 250 mg/kg s.c. daily 10 d): 100.0%
- GMS % Inhibition 3 (MOG-induced EAE [3]; GA 250 mg/kg s.c. daily 10 d): 4.8%
- GMS value (MOG-induced EAE [3]; GA 250 mg/kg s.c. daily 10 d): 2.0 ± 1.0
- Incidence (MOG-induced EAE [3]; GA 250 mg/kg s.c. daily 10 d): 13/15
- MMS % Inhibition 2 (MOG-induced EAE [3]; GA 250 mg/kg s.c. daily 10 d): 2.9%
- MMS value (MOG-induced EAE [3]; GA 250 mg/kg s.c. daily 10 d): 3.3 ± 1.4
- Mean Duration (MOG-induced EAE [3]; GA 250 mg/kg s.c. daily 10 d): 12.1 ± 5.3 days
- Mean Onset (MOG-induced EAE [3]; GA 250 mg/kg s.c. daily 10 d): 18.1 ± 5.5 days
- % Inhibition 1 (incidence) (MOG-induced EAE [3]; [7]): 57.1%
- GMS value (MOG-induced EAE [3]; [7]): 0.7 ± 1.0
- Incidence (MOG-induced EAE [3]; [7]): 6/15
- MMS % Inhibition 2 (MOG-induced EAE [3]; [7]): 61.8%
- GMS % Inhibition 3 (MOG-induced EAE [3]; [8]): 66.7%
- MMS value (MOG-induced EAE [3]; [8]): 1.3 and 1.3 ± 1.8
- Mean Duration (MOG-induced EAE [3]; [8]): 12.1 days and 12.1 ± 5.3 days
- Mean Onset (MOG-induced EAE [3]; [8]): 26.1 ± 7.0 days
- GMS % Inhibition 3 (MOG-induced EAE [3]; GA blocking 12.5 mg/kg once with encephalitogen, listed as GA-Block): (66.7) %

Reference: patent publication US20160038532A1, “Treatment of Multiple Sclerosis With Combination of Laquinimod and Glatiramer Acetate” (TEVA PHARMACEUTICAL INDUSTRIES, LTD., priority 2011, published 2016)
